From publication PMC6656724 (Communications Biology, 2019)
“And” between values parts separate entries of the source, which are not always exact repeats. Identical values can stand only once.

Columns and labels:
[1] = target: T1, Pseudomonas fluorescens KMO (PfKMO) (Pseudomonas fluorescens, UniProt Q84HF5, C252S/C461S); assay: biochemical
T1 construct: made in house; host or cells: E. coli BL21 (DE3)
Description: (§1) A combination of ligand- and structural-based virtual screening approaches (see supporting information for details) was used to identify an initial library of >1000 compounds that may be suitable as potential KMO inhibitors. These compounds were screened for inhibition of Pseudomonas fluorescens KMO (PfKMO) and Homo sapiens KMO (HsKMO) using high-throughput assays by monitoring the time-dependent oxidation of NADPH at 340 nm[23].
(§2) Small-molecule compounds were supplied by Biofocus (Charles River Laboratories International Inc., MA, USA), which were identified in silico as potential inhibitors (further details are described in the Supplementary Methods). Initial inhibition assays were performed against Pseudomonas fluorescens KMO (PfKMO) and Homo sapiens KMO (HsKMO) by monitoring the time-dependent absorbance change of NADPH at 340 nm. Purified KMO protein (200 nM) was incubated in 100 µL reaction buffer (20 mM potassium phosphate pH 8.0, 7 mM 2-mercaptoethanol) containing 100 μM NADPH, 100 μM L-Kyn and 20 μM potential inhibitors in 96-well plates. […] The inhibitors identified in the initial screens were validated and re-assayed individually in a 1 cm path-length quartz micro cuvette. […] Suppliers for target inhibitor compounds are listed in Supplementary Table 11.
(§3) Supplementary Figure 1. Examples of inhibition data used to generate IC50 values for selected KMO inhibitors. Fixed concentration of L -KYN (200 µM) and NADPH (100µM) were added into reaction buffer (HsKMO: 20mM potassium phosphate pH 8.0, 7 mM 2-mercaptoethanol; PfKMO: 20 mM HEPES, 10mM sodium acetate, pH 7.5, 2mM DTT). The reaction was initiated by the addition of KMO enzyme (HsKMO: 0.5µM; PfKMO: 0.1 µM). KMO activity was measured in the presence of a range of inhibitor concentrations. […]
(§4) 3.5 Steady-state enzymatic assays.
(§5) Initial screening assays and determination of IC50 values for each potential inhibitor compound were carried out using either 0.1 µM PfKMO or 0.5 µM HsKMO at fixed […]
(§6) (HsKMO: 20 mM potassium phosphate pH 8.0, 7 mM 2-mercaptoethanol; PfKMO:
(§7) 20 mM HEPES, 10 mM sodium acetate, pH 7.5, 2 mM DTT). KMO activity was measured in the presence of a range of inhibitor concentrations by monitoring the […]
consumption of NADPH at 340 nm upon addition of enzyme via a Cary 50 UV-Vis spectrophotometer (Agilent Technologies). Rates were determined from linear regression fits to the initial linear portion of the curves. All measurements were performed in triplicate. The IC50 values for inhibitors were obtained by plotting the percentage inhibition versus the inhibitor concentration and fitting to the Morrison equation16 (equation 1) using Origin 9.0 Software (OriginLab, Northampton, MA). […]

Homo sapiens KMO (HsKMO) = target: T2, Homo sapiens KMO (HsKMO) (Homo sapiens, UniProt O15229); assay: KMO inhibition assay, NADPH oxidation at 340 nm (HsKMO); format: biochemical
T2 construct: GST; made in house
Description: as §1, §2
Supplementary Figure 1. Examples of inhibition data used to generate IC50 values for selected KMO inhibitors.
as §3, with “NADPH” for “Supplementary Figure 1. Examples of inhibition data used to generate IC50 values for selected KMO inhibitors. Fixed concentration of L -KYN (200 µM) and NADPH”
as §4, §5, §6, §7
(§8) consumption of NADPH at 340 nm upon addition of enzyme via a Cary 50 UV-Vis spectrophotometer (Agilent Technologies). Rates were determined from linear regression fits to the initial linear portion of the curves. All measurements were performed in triplicate. The IC50 values for inhibitors were obtained by plotting the percentage inhibition versus the inhibitor concentration and fitting to the Morrison equation16 (equation 1) using Origin 9.0 Software (OriginLab, Northampton, MA).
E + I + K!"" − E + I + K!"" ! − 4[E][I] where v0 is the enzyme activity without inhibitor, vi is the enzyme activity with ligand

PfKMO [2] = target: T3, PfKMO (Pseudomonas fluorescens, UniProt Q84HF5, C252S/C461S); assay: biochemical
T3 construct: made in house; host or cells: E. coli BL21 (DE3)
Procedure: saturating concentrations of the L-KYN and NADPH substrates. Data are plotted […]
as §8
E + I + K!"" − E + I + K!"" ! − 4[E][I] where v0 is the enzyme activity without inhibitor, vi is the enzyme activity with ligand concentration [I], [E] is the enzyme concentration, [I] is the inhibitor concentration, K!"" is the apparent inhibition constant and IC = K!"" + [!] . If K!"" ≫ [!], IC ≈ […]
where Ki is the inhibition constant, [S] is the substrate concentration used in the assay and Km is the Michaelis-Menten constant17. […]
between Ki and Ki apparent values, as the conditions for measuring IC50 are different, Ki values can be used to compare with other reported KMO inhibitors.
Steady-state kinetic parameters for PfKMO were calculated by measuring initial rates […]
the observed rate of turnover (v) versus the varied substrate concentration were fitted to equation 2 using Origin 9.0 Software (OriginLab, Northampton, MA).
A B + K!! B + K!! A + K!!K!! where v is the initial rate of activity, Vmax is the maximum velocitie of the reaction, [A] and [B] are the substrate concentration, K!! and K!! are the Michaelis-Menten constant for different substrate and K!! is the inhibition (binding) constant of substrate A to the free enzyme while forming transitory complexes.18
Product inhibition studies were carried out by measuring reaction rates at varying […]
one substrate and varying concentrations of the other substrate. Inhibition studies with target compounds were carried out by measuring reaction rates at varying inhibitor concentrations at saturating concentrations of one substrate and varying concentrations of the other substrate. […]
were used to distinguish between different types of inhibition. The data were fitted to a straight line defined by the Lineweaver-Burke equation (equation 4), with the y intercept providing 1/Vmax and the x intercept giving -1/Km. […]

PfKMO [3] = target: T3, PfKMO; assay: Stopped-flow reduction of flavin cofactor by NADPH; format: biochemical
Procedure: The reduction rate of the flavin cofactor by NADPH was measured using a stopped-flow spectrophotometer (Applied Photophysics Ltd), which was housed in an anaerobic glovebox (Belle Technology). […] The reduction of the flavin was monitored by the decrease in the absorbance of the flavin at 450 nm and transients were fitted to either double or triple exponentials.
Supplementary Figure 13. Reduction of flavin cofactor by NADPH in the presence and absence of ligands. Anaerobic mixtures of 10 µM PfKMO with or without ligand were mixed against anaerobic 2 mM NADPH on a stopped-flow spectrophotometer at 25℃. a, 10 µM PfKMO mixed with 2 mM NADPH; b, 10 µM

[4] = tested on: KMO activity in the striatum; assay: De novo 3-HK synthesis after intrastriatal [5-3H]-kynurenine; format: in vivo, Sprague–Dawley rats

T3 sequence (Q84HF5 whole entry C252S/C461S): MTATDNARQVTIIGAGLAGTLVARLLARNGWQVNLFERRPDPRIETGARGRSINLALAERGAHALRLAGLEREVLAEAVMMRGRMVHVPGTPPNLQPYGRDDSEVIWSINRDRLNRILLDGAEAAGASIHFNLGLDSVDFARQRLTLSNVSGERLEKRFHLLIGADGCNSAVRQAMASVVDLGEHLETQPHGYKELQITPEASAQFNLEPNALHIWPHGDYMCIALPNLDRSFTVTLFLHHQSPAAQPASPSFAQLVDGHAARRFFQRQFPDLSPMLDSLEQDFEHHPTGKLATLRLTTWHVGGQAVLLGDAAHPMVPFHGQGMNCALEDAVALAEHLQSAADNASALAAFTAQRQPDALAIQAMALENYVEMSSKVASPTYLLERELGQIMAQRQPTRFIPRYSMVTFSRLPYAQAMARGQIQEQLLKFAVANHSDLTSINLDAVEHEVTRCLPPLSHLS
T1 sequence (Q84HF5 whole entry C252S/C461S): as above
T2 sequence (O15229 whole entry): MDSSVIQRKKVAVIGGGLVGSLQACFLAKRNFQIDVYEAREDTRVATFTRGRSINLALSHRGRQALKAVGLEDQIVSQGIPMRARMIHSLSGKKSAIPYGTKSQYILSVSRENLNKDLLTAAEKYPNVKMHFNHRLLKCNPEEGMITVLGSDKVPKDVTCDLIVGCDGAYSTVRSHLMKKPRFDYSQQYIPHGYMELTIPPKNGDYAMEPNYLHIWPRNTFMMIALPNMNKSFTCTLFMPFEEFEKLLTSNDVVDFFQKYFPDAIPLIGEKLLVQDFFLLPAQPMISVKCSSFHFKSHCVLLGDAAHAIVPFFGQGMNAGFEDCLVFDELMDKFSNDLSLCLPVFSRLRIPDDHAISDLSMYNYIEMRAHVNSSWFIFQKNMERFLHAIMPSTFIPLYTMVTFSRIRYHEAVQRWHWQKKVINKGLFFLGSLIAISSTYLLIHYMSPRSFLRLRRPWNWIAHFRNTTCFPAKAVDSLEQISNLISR

| Compound | IC50 [1] | IC50 (Homo sapiens KMO (HsKMO)) | Ki (PfKMO [2]) | Mechanism of inhibition with respect to L-KYN (PfKMO [2]; PfKMO) | Mechanism of inhibition with respect to NADPH (PfKMO [2]; PfKMO) | Reduction rate of flavin cofactor (PfKMO [3]; PfKMO with saturating ligand, 2 mM NADPH, 25 °C, anaerobic) | Stimulation of KMO reduction by NADPH (PfKMO [3]; rapid mixing stopped-flow assays) | Reduction of [3H]-3-HK ([4]; rat striatum, 50 mg/kg i.v., 1 h) | Percentage of [5-3H]-KYN that is metabolized into [3H]-3-HK ([4]; striatum of awake rats, 1 h after 50 mg/kg i.v., single rats) |
| --- | --- | --- | --- | --- | --- | --- | --- | --- | --- |
| O=C(O)c1ccc(-c2ccc(Cl)c(Cl)c2)o1 [compound 13, 5-(3,4-dichlorophenyl) furan-2-carboxylic acid] | 400 ± 20 nM | 63100 nM | 20 ± 1 nM | competitive inhibitor | mixed type inhibitors | 0.06 ± 0.002 s⁻¹ | do not stimulate | – | – |
| COc1ccc(S(=O)(=O)Nc2nc(-c3cccc([N+](=O)[O-])c3)cs2)cc1OC [Ro 61-8048] | – | – | – | – | – | – | – | no reduction | 2.76% and 5.1% and 4.48% and 5.65% and 2.31% and 2.1% |
